Experiments:
[1] = system: Cryptococcus neoformans ATCC 90113; assay: Antimicrobial microdilution assay against Cryptococcus neoformans (modified CLSI/NCCLS, optical density); type: cell-based; settings: for X more potent than Amphotericin B: C. neoformans, ratio of molar IC50 to Amphotericin B; for C. neoformans IC50 / IC50: in vitro, C. neoformans ATCC 90113; for IC50: read-out: C. neoformans IC50 (mol/L)
Method in brief: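 Broth microdilution (modified CLSI) in RPMI pH 6.0, samples serially diluted in 20% DMSO/saline and tested in duplicate, growth followed by OD630 before and after incubation. MFC is the lowest concentration giving no growth when 5 μL from clear wells is plated on agar.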

[2] = system: L. donovani promastigotes; assay: Antileishmanial Alamar Blue assay on promastigotes; type: cell-based, Leishmania donovani; settings: for X more potent than Pentamidine: L. donovani, ratio of molar IC50 to Pentamidine; for L. donovani IC50 / IC50: promastigotes, 48 hours, Alamar Blue; for IC50: read-out: L. donavani IC50
Method in brief: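 L. donovani promastigotes in RPMI 1640 with 10% FCS, from 3-day culture, were set at 5×10^5/mL and exposed to compound (50-3.1 μg/mL) for 48 hours at 26° C. Growth read by Alamar Blue fluorescence (ex 544/em 590 nm); IC50 from percent growth versus concentration.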

C. krusei ATCC 6258 = assay: Antifungal broth dilution assay against C. krusei (modified CLSI); type: cell-based, Candida krusei; settings: for X more potent than Amphotericin B: C. krusei, ratio of molar IC50 to amphotericin B; for C. krusei IC50 / IC50: in vitro; for IC50: read-out: C. krusei IC50 (mol/L)
Method in brief: (§1)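 Modified CLSI broth microdilution with OD monitoring before and after incubation at 35 °C: Candida in RPMI 1640/MOPS pH 6.0, 1.5×10^3 CFU/ml, 46-50 h; Staphylococcus in cation-adjusted Mueller-Hinton pH 7.3, 5.0×10^5 CFU/ml, 16-20 h. IC50 from curve fit; MIC is the lowest concentration with no growth; MFC/MBC from subculture.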

[3] = system: S. mansoni newly transformed schistosomula (NTS); assay: In vitro testing on Schistosoma mansoni newly transformed schistosomula (NTS), viability score; type: cell-based; settings: 72 h
Method in brief: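 Mechanically transformed S. mansoni (Liberian strain) NTS, cultured overnight, exposed at 100 per well to compound (from 10 mM DMSO stock; ≤1% DMSO controls) at 37 °C, 5% CO2 for 72 h. Viability scored microscopically from 3 (normal activity, intact tegument) to 0 (dead, granulated).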

C. glabrata ATCC 90030 = assay: Antifungal broth dilution assay against C. glabrata (modified CLSI); type: cell-based, Candida glabrata; settings: for C. glabrata IC50 / IC50: in vitro; for IC50: converted with molecular weight; for X more potent than Amphotericin B: molar IC50 ratio versus amphotericin B
Method in brief: as §1

[4] = system: Plasmodium falciparum D6 clone (Sierra Leon, chloroquine-sensitive); assay: In vitro antimalarial assay, chloroquine-sensitive D6 clone; type: cell-based; settings: D6 clone; for IC50: converted with molecular weight, read-out: P. falciparum D6 IC50; for X more potent than chloroquine: molar IC50 ratio versus chloroquine
Method in brief: (§2)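 Parasites grown in type A human RBCs; assay run on infected cell suspension at 2% parasitemia and 2% hematocrit, in duplicate at several concentrations. IC50 taken from dose curves, per the Makler method, with DMSO as vehicle; Vero cytotoxicity run in parallel to derive a selectivity index.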

[5] = system: Plasmodium falciparum W2 clone (Indochina, chloroquine-resistant); assay: In vitro antimalarial assay, chloroquine-resistant W2 clone; type: cell-based; settings: W2 clone; for IC50: converted with molecular weight, read-out: P. falciparum W2 IC50; for X more potent than chloroquine: molar IC50 ratio versus chloroquine
Method in brief: as §2

Compound	X more potent than Amphotericin B [1]	C. neoformans IC50 [1]	IC50 [1]	X more potent than Pentamidine [2]	L. donovani IC50 [2]	IC50 [2]	X more potent than Amphotericin B (C. krusei ATCC 6258)	C. krusei IC50 (C. krusei ATCC 6258)	IC50 (C. krusei ATCC 6258)	Effect at 72 h (%) ([3]; NTS S. mansoni, 33 μM)	C. glabrata IC50 (C. glabrata ATCC 90030)	IC50 (C. glabrata ATCC 90030)	X more potent than Amphotericin B (C. glabrata ATCC 90030)	P. falciparum D6 IC50 [4]	IC50 [4]	X more potent than chloroquine [4]	P. falciparum W2 IC50 [5]	IC50 [5]	X more potent than chloroquine [5]	also measured
CN1CCN2CCN(CC1)CCN(Cc1cc(CN3CCN4CCN(C)CCN(CC4)CC3)cc(CN3CCN4CCN(C)CCN(CC4)CC3)c1)CC2 [BNS017, tris-CB-cyclens]	2.56	0.070 µg/mL	93.2 nM	0.16	25.46 µg/mL	33900 nM	0.19	5.850 µg/mL	7790 nM	0.00%										
CC(=O)[O-].CC(=O)[O-].CC(=O)[O-].CN1CCN2CCN(CC1)CCN(Cc1cc(CN3CCN4CCN(C)CCN(CC4)CC3)cc(CN3CCN4CCN(C)CCN(CC4)CC3)c1)CC2.F[P-](F)(F)(F)(F)F.F[P-](F)(F)(F)(F)F.F[P-](F)(F)(F)(F)F.F[P-](F)(F)(F)(F)F.F[P-](F)(F)(F)(F)F.F[P-](F)(F)(F)(F)F.[Co+3].[Co+3].[Co+3] [BNS20, [Co3(tris-CB-Cyclens)(OAc)3][PF6]6]	0.47	1.000 µg/mL	506 nM					0.980 µg/mL	496 nM	18.02%	4.720 µg/mL	2390 nM	0.59							
CC(=O)[O-].CC(=O)[O-].CC(=O)[O-].F[P-](F)(F)(F)(F)F.F[P-](F)(F)(F)(F)F.F[P-](F)(F)(F)(F)F.[Co+2].[Co+2].[Co+2].c1c(CN2CCNCCN3CCN(CC3)CC2)cc(CN2CCNCCN3CCN(CC3)CC2)cc1CN1CCNCCN2CCN(CC2)CC1 [CDG021, [Co3(tris-SB-Cyclens)(OAc)3][PF6]3]	0.45	≤ 0.800 µg/mL	534 nM				0.53	4.200 µg/mL	2800 nM	11.71%	0.800 µg/mL	534 nM	2.66							times more potent than AMB (C. glabrata ATCC 90030): 2.66
CC(=O)[O-].F[P-](F)(F)(F)(F)F.[Cu+2].c1ccc(CN2CCCN3CCN(CCCN(Cc4ccccc4)CC3)CC2)cc1 [RM37, [Cu(Bn2Bcyclam)(OAc)]PF6]				0.58	6.17 µg/mL	9150 nM				100.00%				0.2855 µg/mL	424 nM	0.09	0.5451 µg/mL	809 nM	0.84	Effect at 72 h (%) ([3]; NTS S. mansoni at 10 μM): 24.14%
CC(=O)[O-].F[P-](F)(F)(F)(F)F.[Zn+2].c1ccc(CN2CCCN3CCN(CCCN(Cc4ccccc4)CC3)CC2)cc1 [RM41, [Zn(Bn2Bcyclam)(OAc)]PF6]				0.38	9.51 µg/mL					100.00%				0.2315 µg/mL		0.11	0.4010 µg/mL		1.14	Effect at 72 h (%) ([3]; NTS S. mansoni at 10 μM): 17.24%
CC(=O)[O-].CN1CCCN2CCN(CCCN(Cc3ccccc3)CC2)CC1.F[P-](F)(F)(F)(F)F.[Cu+2] [RM56A, [Cu(Bn1Me1Bcyclam)(OAc)]PF6]				0.10	33.32 µg/mL	55700 nM				18.02%				0.7145 µg/mL	1200 nM	0.03	0.6747 µg/mL	1130 nM	0.60	
CC(=O)[O-].F[P-](F)(F)(F)(F)F.[Ni+2].c1ccc(CN2CCCN3CCN(CCCN(Cc4ccccc4)CC3)CC2)cc1 [TC09, [Ni(Bn2Bcyclam)(OAc)]PF6]				0.55	6.51 µg/mL	9730 nM	0.22	4.520 µg/mL	6750 nM	43.24%				0.552 µg/mL	825 nM	0.04	0.8876 µg/mL	1330 nM	0.51	
CC(=O)[O-].CC(=O)[O-].CN1CCCN2CCN(CCCN(Cc3ccc(CN4CCCN5CCN(C)CCCN(CC5)CC4)cc3)CC2)CC1.F[P-](F)(F)(F)(F)F.F[P-](F)(F)(F)(F)F.[Cu+2].[Cu+2] [TJH384A, [Cu2(p-CB-cyclams)(OAc)2](PF6)2]	0.38	0.700 µg/mL	626 nM				0.25	6.760 µg/mL	6050 nM	5.41%	14.590 µg/mL	13000 nM	0.11							

From patent US12139481B2, “Compositions comprising macrocycle derivatives incorporating bridged macrocycles and methods of producing and using same” (Southwestern Oklahoma State University, priority 2015, dated 2024)
